# Molecular target: chlorite dismutase (DaCld) (Dechloromonas aromatica (nom. nud.), UniProt Q47CX0)
# Assay: steady-state peroxidase assay
# Type: biochemical
# Chain of chlorite dismutase (DaCld) (Q47CX0 35-282): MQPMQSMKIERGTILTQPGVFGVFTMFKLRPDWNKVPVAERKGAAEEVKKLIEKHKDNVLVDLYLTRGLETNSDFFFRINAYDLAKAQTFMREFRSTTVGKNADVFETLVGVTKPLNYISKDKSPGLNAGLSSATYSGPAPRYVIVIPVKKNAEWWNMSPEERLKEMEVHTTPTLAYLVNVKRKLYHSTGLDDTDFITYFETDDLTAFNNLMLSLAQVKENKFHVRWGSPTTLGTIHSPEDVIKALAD
structure (smiles),measurement,value
"COc1ccccc1O [guaiacol, 2-methoxyphenol]",kcat (S^-1),2.8 s⁻¹

# Reference: publication PMC4390081 (Biochemistry, 2013)
